Structures can show the parent of a compound that is named as a salt. Where a SMILES comes first, the peptide text is derived from it. Bridges are numbered along the chain shown (N, C = ends). [ ]: non-standard residue; d: D form. hArg = N=C(N)NCCCC[C@H](N)C(=O)O; Mpa = O=C(O)CCS

For the data set, the system named is hDMFa myofibroblast cells.

Take `O=C1O[C@H]([C@@H](O)CO)C(O)=C1O` [Cmpd 562, L-Ascorbic Acid (Vitamin C)]: the “Compound Myofibroblast Cytotoxicity Activity” value is recorded as “+”.

For the molecule `Cc1cc(=O)oc2cc(O)ccc12` [Cmpd 63, 4-Methylumbelliferone (4-MU)], the “Compound Myofibroblast Cytotoxicity Activity” value is “++++”.

For `COc1ccc2cc1Oc1ccc(cc1)C[C@H]1c3cc(c(OC)cc3CCN1C)Oc1c(OC)c(OC)cc3c1[C@H](C2)N(C)CC3` [Cmpd 936, Tetrandrine], the “Compound Myofibroblast Cytotoxicity Activity” value is on record as “++”.

With `CC(C(=O)O)c1ccc(CC2CCCC2=O)cc1` (stereo not drawn) [Cmpd 611, Loxoprofen Sodium], the “Compound Myofibroblast Cytotoxicity Activity” value is “++”.

As for `OCc1cc(C(O)CNCCCCCCOCCCCc2ccccc2)ccc1O` (stereo not drawn) [Cmpd 849, Salmeterol xinafoate], the “Compound Myofibroblast Cytotoxicity Activity” value is given as “+++”.

Consider `Cc1ccc([C@@H]2O[C@H](CO)[C@@H](O)[C@H](O)[C@H]2O)cc1Cc1ccc(-c2ccc(F)cc2)s1.O` [Cmpd 209, Canagliflozin (hemihydrate)], for which the “Compound Myofibroblast Cytotoxicity Activity” value is on record as “+++++”.

For `C[C@H](CCC(=O)NCCS(=O)(=O)[O-])[C@H]1CC[C@H]2[C@@H]3[C@@H](O)C[C@@H]4C[C@H](O)CC[C@]4(C)[C@H]3CC[C@]12C.[Na+]` [Cmpd 877, Sodium Tauroursodeoxycholate (TUDC)], the “Compound Myofibroblast Cytotoxicity Activity” value was “++”.

For the molecule `CC[C@@H]1/C=C(\C)C[C@H](C)C[C@H](OC)[C@H]2O[C@@](O)(C(=O)C(=O)N3CCCC[C@H]3C(=O)O[C@H](/C(C)=C/[C@@H]3CC[C@@H](O)[C@H](OC)C3)[C@H](C)[C@@H](O)CC1=O)[C@H](C)C[C@@H]2OC` [Cmpd 133, Ascomycin(FK 520)], the “Compound Myofibroblast Cytotoxicity Activity” value is on record as “+++”.

As for `C=C1/C(=C\C=C2/CCC[C@]3(C)[C@@H]([C@H](C)CCCC(C)(C)O)CC[C@@H]23)C[C@@H](O)C[C@@H]1O` [Cmpd 204, Calcitriol], the “Compound Myofibroblast Cytotoxicity Activity” value was “+++”.

With `C=C1CC[C@H](O)C/C1=C/C=C1\CCC[C@]2(C)[C@@H]([C@H](C)CCCC(C)(C)O)CC[C@@H]12` [Cmpd 202, Calcifediol], the “Compound Myofibroblast Cytotoxicity Activity” value is reported as “+++”.

`C[Si]1(C)O[Si](C)(C)O[Si](C)(C)O1` [Cmpd 505, Hexamethylcyclotrisiloxane]: the “Compound Myofibroblast Cytotoxicity Activity” value is recorded as “+”.

As for `O=c1[nH]c(=O)c2[nH]cnc2[nH]1` [Cmpd 1020, xanthine], the “Compound Myofibroblast Cytotoxicity Activity” value was “++”.

Turning to `N=C(N)NCCCC[C@@H]1NC(=O)CCSSC[C@@H](C(N)=O)NC(=O)[C@@H]2CCCN2C(=O)[C@H](Cc2c[nH]c3ccccc23)NC(=O)[C@H](CC(=O)O)NC(=O)CNC1=O` [Cmpd 424, Eptifibatide Acetate] ([Mpa][hArg]GDWPC-NH2; disulfide 1-7), the “Compound Myofibroblast Cytotoxicity Activity” value is recorded as “++”.

As to `CC(O)Cn1cnc2c1c(=O)n(C)c(=O)n2C` (stereo not drawn) [Cmpd 805, Proxyphylline], the “Compound Myofibroblast Cytotoxicity Activity” value is on record as “++”.

For the molecule `O=c1ccc2cc(O)c(O)cc2o1` [Cmpd 69], the “Compound Myofibroblast Cytotoxicity Activity” value is reported as “++”.

Turning to `CCCCCCCC(=O)O` [Cmpd 729, Octanoic acid], the “Compound Myofibroblast Cytotoxicity Activity” value was “++”.

For `CC/C=C\C/C=C\C/C=C\C/C=C\C/C=C\C/C=C\CCC(=O)O` [Cmpd 375, Docosahexaenoic Acid], the “Compound Myofibroblast Cytotoxicity Activity” value was “+++”.

For `CCC/C=C1\OC(=O)C2=C1CCC=C2` [Cmpd 2, Z-Ligustilide], the “Compound Myofibroblast Cytotoxicity Activity” value is recorded as “++”.

For `C[C@H](CCC(=O)NCC(=O)O)[C@H]1CC[C@H]2[C@@H]3[C@H](O)C[C@@H]4C[C@H](O)CC[C@]4(C)[C@H]3C[C@H](O)[C@]12C` [Cmpd 488, Glycocholic Acid], the “Compound Myofibroblast Cytotoxicity Activity” value is reported as “++++”.

Regarding `CC(=O)[C@]1(O)Cc2c(O)c3c(c(O)c2[C@@H](O[C@H]2C[C@H](N)[C@H](O)[C@H](C)O2)C1)C(=O)c1ccccc1C3=O` [Cmpd 515, Idarubicin HCl], the “Compound Myofibroblast Cytotoxicity Activity” value is “+++++”.

On to `C=Cc1c(C)c2cc3nc(cc4[nH]c(cc5nc(cc1[nH]2)C(C)=C5CCC(=O)O)c(CCC(=O)OC)c4C)[C@@]1(C)C3=CC=C(C(=O)OC)[C@H]1C(=O)OC` [Cmpd 999, Verteporfin], for which the “Compound Myofibroblast Cytotoxicity Activity” value was “+++++”.

Turning to `CC(=O)Nc1ccc(C(=O)O)cc1.CC(=O)Nc1ccc(C(=O)O)cc1.CC(=O)Nc1ccc(C(=O)O)cc1.CC(O)CN(C)C.CC(O)CN(C)C.CC(O)CN(C)C.O=c1[nH]cnc2c1ncn2[C@@H]1O[C@H](CO)[C@@H](O)[C@H]1O` [Cmpd 538, Isoprinosine], the “Compound Myofibroblast Cytotoxicity Activity” value is given as “++”.

Take `Cn1nnc(-c2ccc(-c3ccc(N4C[C@H](CO)OC4=O)cc3F)cn2)n1` [Cmpd 920, Tedizolid HCl]: the “Compound Myofibroblast Cytotoxicity Activity” value is recorded as “++++”.

On to `COc1cc2c(cc1OC)C1CC(=O)C(CC(C)C)CN1CC2` (stereo not drawn) [Cmpd 933, Tetrabenazine], for which the “Compound Myofibroblast Cytotoxicity Activity” value is recorded as “+++”.

For the molecule `O=C(O)c1ccccc1` [Cmpd 167, Benzoic Acid], the “Compound Myofibroblast Cytotoxicity Activity” value was “++”.

As to `CCCCCCCCCCCCN1CCCCCC1=O` [Cmpd 565, Laurocapram], the “Compound Myofibroblast Cytotoxicity Activity” value is listed as “+++++”.

As to `CC(=O)NO` [Cmpd 81, Acetohydroxamic Acid], the “Compound Myofibroblast Cytotoxicity Activity” value is “++++”.

For `N=C(N)NC(=O)c1nc(Cl)c(N)nc1N` [Cmpd 105, Amiloride HCl dihydrate], the “Compound Myofibroblast Cytotoxicity Activity” value is recorded as “++”.

For Teicoplanin [Cmpd 921], the “Compound Myofibroblast Cytotoxicity Activity” value was “+++”.

For the molecule `CC[C@]1(O)C[C@H]2CN(CCc3c([nH]c4ccccc34)[C@@](C(=O)OC)(c3cc4c(cc3OC)N(C=O)[C@H]3[C@@](O)(C(=O)OC)[C@H](OC(C)=O)[C@]5(CC)C=CCN6CC[C@]43[C@@H]65)C2)C1` [Cmpd 1004, Vincristine sulfate], the “Compound Myofibroblast Cytotoxicity Activity” value was “+++”.

Take `COc1ccc2cc1Oc1ccc(cc1)C[C@H]1c3c(cc4c(c3Oc3cc5c(cc3OC)CCN(C)[C@@H]5C2)OCO4)CCN1C` [Cmpd 241, Cepharanthine]: the “Compound Myofibroblast Cytotoxicity Activity” value is given as “++”.

As for `COCCCC/C(=N\OCCN)c1ccc(C(F)(F)F)cc1` [Cmpd 466, Fluvoxamine maleate], the “Compound Myofibroblast Cytotoxicity Activity” value is reported as “++”.

With `NC(=O)CC[C@@H](N)C(=O)O` [Cmpd 346, D-Glutamine], the “Compound Myofibroblast Cytotoxicity Activity” value is “++”.

Turning to `CN(C)CC/C=C1/c2ccccc2Sc2ccc(Cl)cc21` [Cmpd 254, Chlorprothixene], the “Compound Myofibroblast Cytotoxicity Activity” value is “+++”.

For the molecule `C=C1CC[C@H]2C[C@@H]1C2(C)C` [Cmpd 22, (1S)-(-)-β-Pinene], the “Compound Myofibroblast Cytotoxicity Activity” value is recorded as “++”.

Take `N=C(NCCCCCCNC(=N)NC(=N)Nc1ccc(Cl)cc1)NC(=N)Nc1ccc(Cl)cc1.O=C(O)[C@H](O)[C@@H](O)[C@H](O)[C@H](O)CO.O=C(O)[C@H](O)[C@@H](O)[C@H](O)[C@H](O)CO` [Cmpd 248, Chlorhexidine digluconate]: the “Compound Myofibroblast Cytotoxicity Activity” value is recorded as “+++”.

For the molecule `OC[C@H]1O[C@H](OC[C@H]2O[C@H](O[C@]3(CO)O[C@H](CO)[C@@H](O)[C@@H]3O)[C@H](O)[C@@H](O)[C@@H]2O)[C@H](O)[C@@H](O)[C@H]1O` [Cmpd 308, D-(+)-Raffinose (hydrate)], the “Compound Myofibroblast Cytotoxicity Activity” value is listed as “++”.

Turning to `OC(CCCN1CCCCC1)(c1ccccc1)c1ccccc1` [Cmpd 365, Diphenidol HCl], the “Compound Myofibroblast Cytotoxicity Activity” value was “++++”.

With `CN(C)c1ccc2nc3ccc(=[N+](C)C)cc-3sc2c1` [Cmpd 663, Methylene Blue], the “Compound Myofibroblast Cytotoxicity Activity” value is listed as “+++++”.

Take `COc1cc([C@@H]2c3cc4c(cc3[C@@H](O[C@@H]3O[C@@H]5CO[C@@H](c6cccs6)O[C@H]5[C@H](O)[C@H]3O)[C@H]3COC(=O)[C@H]23)OCO4)cc(OC)c1O` [Cmpd 925, Teniposide]: the “Compound Myofibroblast Cytotoxicity Activity” value is “++”.

For the molecule `CC1(C)NC(=O)N(c2ccc([N+](=O)[O-])c(C(F)(F)F)c2)C1=O` [Cmpd 714, Nilutamide], the “Compound Myofibroblast Cytotoxicity Activity” value was “++++”.

With `NC(=O)c1ccc(I)c([N+](=O)[O-])c1` [Cmpd 531, Iniparib (BSI-201)], the “Compound Myofibroblast Cytotoxicity Activity” value is recorded as “+++++”.

Turning to `C=C1CC/C=C(\C)CC[C@@H]2[C@@H]1CC2(C)C` [Cmpd 8, β-Caryophyllene], the “Compound Myofibroblast Cytotoxicity Activity” value is given as “+++”.

As to `CC1=NN(c2ccc(C)c(C)c2)C(=O)/C1=N\Nc1cccc(-c2cccc(C(=O)O)c2)c1O` [Cmpd 410, Eltrombopag], the “Compound Myofibroblast Cytotoxicity Activity” value was “++”.

`Oc1ccccc1O` [Cmpd 810, Pyrocatechol]: the “Compound Myofibroblast Cytotoxicity Activity” value is reported as “++”.

With `O=C1OC2(c3ccc(O)cc3Oc3cc(O)ccc32)c2ccccc21` [Cmpd 462, Fluorescein], the “Compound Myofibroblast Cytotoxicity Activity” value was “++”.

For the molecule `CCCc1nn(C)c2c(=O)[nH]c(-c3cc(S(=O)(=O)N4CCN(C)CC4)ccc3OCC)nc12.CS(=O)(=O)O` [Cmpd 862, Sildenafil mesylate], the “Compound Myofibroblast Cytotoxicity Activity” value is “++”.

`CN(C)CCCN1c2ccccc2Sc2ccc(Cl)cc21` [Cmpd 253, Chlorpromazine HCl]: the “Compound Myofibroblast Cytotoxicity Activity” value is recorded as “+++”.

Regarding `COc1cccc(OC)c1C(=O)N[C@@H]1C(=O)N2[C@@H]1SC(C)(C)[C@@H]2C(=O)O` [Cmpd 656, Methicillin (sodium salt)], the “Compound Myofibroblast Cytotoxicity Activity” value was “++”.

Take `Cc1ncc(CO)c(CO)c1O` [Cmpd 809, Pyridoxine]: the “Compound Myofibroblast Cytotoxicity Activity” value is listed as “++”.

With `CC(C)(CO)[C@H](O)C(=O)NCCCO` [Cmpd 390, D-Panthenol], the “Compound Myofibroblast Cytotoxicity Activity” value is “++”.

`C=CCCCCCCCCC(=O)O` [Cmpd 39, 10-Undecenoic acid]: the “Compound Myofibroblast Cytotoxicity Activity” value was “++”.

As for Zinc Pyrithione [Cmpd 1026], the “Compound Myofibroblast Cytotoxicity Activity” value is on record as “+++++”.

As to `CC12CCC(CC1=O)C2(C)C` (stereo not drawn) [Cmpd 11, (+)-Camphor], the “Compound Myofibroblast Cytotoxicity Activity” value was “++”.

With `O=C(O)c1ccc(C(=O)O)cc1` [Cmpd 929, Terephthalic acid], the “Compound Myofibroblast Cytotoxicity Activity” value is “++”.

For `CC(=O)SCC(Cc1ccccc1)C(=O)NCC(=O)OCc1ccccc1` (stereo not drawn) [Cmpd 817, Racecadotril], the “Compound Myofibroblast Cytotoxicity Activity” value is “++”.

On to `C/C=C/c1ccc(OC)cc1` [Cmpd 963, Trans-Anethole], for which the “Compound Myofibroblast Cytotoxicity Activity” value is “++”.

The record behind these values is patent US20260102359A1, “COMBINATION TREATMENT OF DERMAL AND TRANSDERMAL FIBROTIC DISEASES, DISORDERS AND ASSOCIATED PAIN AND INFLAMMATION” (ERESINA, LLC, priority 2022, published 2026).
